Data on 1 molecule can be found in patent US9387231B2, “Compositions comprising a Brd4 antagonist and methods for the treatment of HIV” (THE CHILDREN'S HOSPITAL OF PHILADELPHIA, priority 2011, dated 2016).

Type in all cases: cell-based
One assay relates to HIV LTR. As to the kind of experiment: Reactivation of the HIV LTR in latently infected J-Lat clones (GFP by flow cytometry). On the procedure: GFP expression was measured by flow cytometry. FIGS. 3B and 3C shown the percentage of cells positive for GFP (FIG. 3B) and the mean MFI of GFP (FIG. 3C) in latently infected cell lines, J-Lat clones 82, A72, A7, A2, and A1, at 16 hours after TNFα or PHA was added in the cultures in the presence of JQ1(+) or JQ1(−). […] GFP expression in cells was measured by flow cytometry and is indicated as percent of GFP+ cells in gated live cell populations. An average of 5 experiments is shown. * p<0.05, ** p<0.01, *** p<0.001. […] Average of 3 experiments is shown. * p<0.05. For FIG. 3F, J-Lat A2 and A72 cells were reactivated with TNFα (20 ng/ml) or HIV Tat protein (50 μg/ml) in the presence of JQ1(+) or JQ1(−) for 16-18 hours, and GFP expression in cells was measured by flow cytometry. One representative experiment is shown. In each dot plot, non-underlined numbers indicate percentage of GFP+ cells and underlined numbers indicate mean fluorescence of GFP (MFI).
Next, the effect of JQ1 on activation of the HIV LTR was tested using a latently infected Jurkat-derived cell clone, J-Lat clone A2. GFP expression in J-Lat clone A2 is induced upon reactivation with tumor necrosis factor-alpha (TNFα) or phytohaemagglutinin (PHA).
To further study the mechanism of how JQ1 drives reactivation of HIV latency, HIV latently infected T-cell lines—J-Lat clones A1, A2, A7, and A72—were utilized. The effect of JQ1(+) on reactivation of HIV latency in these cell lines were confirmed. TNFα (20 ng/ml) or PHA (1.5 μg/ml) was added to cultures of J-Lat clones in the presence of 1 μM JQ1(+) or JQ1(−). After 16 hours, expression of GFP was measured by flow cytometry. […] In the presence of HIV Tat, BET antagonism enhances Tat-driven transcription of the HIV LTR in J-Lat clones A2 and A72 (FIG. 3F; underlined numbers indicate mean GFP fluorescence, non-underlined numbers indicate percent of GFP+ cells). […] Displacement of Brd4 from chromatin by JQ1(+) may cause conformational change in the chromatin, exposing NF-κb binding sites, leading to increased HIV transcription and reactivation of latency.

A further assay deals with HIV-1 NL43. As to the kind of experiment: Viral integration in primary resting CD4 T-cells by Alu-PCR. As to conditions: for provirus/cell: NL43, 1 μM, T48 h, listed as JQ(+). On the procedure: To determine if JQ1(+) affects viral integration in primary resting CD4 T-cells, the cells were purified and infected with HIV-1 NL43 or mock control. The infected cells were then cultured in the presence of 1 μM of JQ1(+) or JQ1(−) for 48 hours. Cell pellets were collected at 0 hours and 48 hours after infection. DNA was isolated and the viral integration in resting CD4 T-cells was measured by Alu-PCR.

In assay [1] the test system is HIV-1 NL43, SG3 or SG3deltaVif. As to the kind of experiment: Reactivation in latently infected primary resting CD4 T-cells (p24 ELISA). The procedure: A representative of three experiments is shown. […] AZT (100 μM) was added at day 1 after infection to prevent the spreading infection. The level of p24 in the media was measured by ELISA at day 3 (d3) and day 5 (d5) post-infection. The data shown are summarized for triplicate samples.
For FIG. 5A, primary resting CD4 T-cells were purified and spinoculated with HIV-1 NL43 or mock control. The infected cells were then cultured in the presence of 1 μM of JQ1(+) or JQ1(−). At day 3 after infection, IL-7 (20 ng/ml) was added in some of the cultures. Cells were counted and cell supernatants were collected at day 5 after infection. For FIG. 5B, primary CD4 T-cells were spinoculated with SG3 or SG3deltaVif and cultured in the presence of 1 μM of JQ1(+) or JQ1(−). AZT (100 μM) was added at day 1 after infection to prevent the spreading infection. IL7 (20 ng/ml) was added in some culture at day 3 after infection and the level of p24 in the media was measured by ELISA at day 3 and day 5 post-infection. The data shown are summarized with triplicates.
(ELISA stands for enzyme-linked immunosorbent assay.)

Another assay has as its system HIV (NL43, SG3). As to the kind of experiment: Viral production and p24Gag expression in HIV-infected CEMss LTR-GFP cells.
Assay [2] relates to Cdk9 binding to the HIV LTR. As to the kind of experiment: Chromatin immunoprecipitation (ChIP) of HIV LTR DNA, Cdk9. As to conditions: CEMss LTR-GFP cells infected with HIV NL4-3, days 3 to 5, compared to JQ1(−), p<0.001. The procedure:
FIGS. 7A and 7B show the fold increase in the binding of IgG, RNA polymerase II, or Cdk9 to the HIV LTR in the presence of JQ1(+) or JQ1(−) for early (FIG. 7A) and late (FIG. 7B) HIV-1 transcript. ***p<0.001.
To further investigate the mechanism of JQ1(+) reactivation of HIV transcription in latently infected T-cells, the binding of RNA polymerase II (PoI II) and p-TEFb (Cdk9/Cyclin T) to the promoter region of HIV LTR was measured using chromatin immunoprecipitation (ChIP). A CEMss reporter cell line stably transfected with GFP under the control of the HIV LTR promoter was used. CEMss LTR-GFP cells were infected with HIV NL4-3 in the presence of JQ1(+) or JQ1(−). At days 3 to 5 of infection, cells were collected and sheared, and formaldehyde cross-linked chromatin extracts were immunoprecipitated with antibodies specific for IgG, RNA polymerase II, or Cdk9. The abundance of HIV LTR DNA in immunoprecipitates was assessed by qPCR with two sets of primers specific for early or late regions of the HIV LTR.

Entries after “also recorded” stand apart in the source; their conditions may differ.

For the molecule `Cc1sc2c(c1C)C(c1ccc(Cl)cc1)=N[C@@H](CC(=O)OC(C)(C)C)c1nnc(C)n1-2` [JQ1(+), tert-butyl 2-((6S)-4-(4-chlorophenyl)-2,3,9-trimethyl-6H-thieno[3,2-f][1,2,4]triazolo[4,3-a][1,4]diazepin-6-yl)acetate], the “GFP expression (% positive cells and mean fluorescence intensity)” value in the assay on HIV LTR (J-Lat clone A2, with TNFα or PHA, 0.5 μM, 16 hours, versus JQ1(−) control) is “higher”. Besides, in the assay on HIV LTR (J-Lat clones A2 and A72, HIV Tat protein 50 μg/ml, 16-18 hours), the “Tat-driven transcription of the HIV LTR (GFP)” value is reported as “enhances”. Further, the “GFP expression with TNFα” value in the assay with HIV LTR (J-Lat clones A72 and A2, TNFα 20 ng/ml plus compound 1 μM) is “dramatically enhanced”. Further, the “Percent of cells expressing GFP” value in the assay with HIV LTR (J-Lat clones, compound alone, 1 μM, 16-18 hours) was “increased”. Further, the provirus/cell in the assay on HIV-1 NL43 (Exp. 1, primary resting CD4 T-cells) is on record as 0.559 ± 0.005 provirus/cell; in the assay with HIV-1 NL43 (Exp. 2, primary resting CD4 T-cells), 0.444 ± 0.120 provirus/cell. In the assay on HIV-1 NL43 (primary resting CD4 T-cells, 1 μM, 48 hours, Alu-PCR), the Viral integration result is recorded as “does not significantly affect”. In assay [1] (latently infected primary resting CD4 T-cells, NL43, 1 μM), the “Reactivation of the HIV LTR (p24 per million cells)” value is recorded as “drives the reactivation of the HIV LTR”. Also, in assay [1] (wild-type SG3 latently infected primary CD4 T-cells, 1 μM, AZT 100 μM), the “Reactivation of the HIV LTR (p24 in media)” value is recorded as “drives reactivation of the HIV LTR; also recorded: drives the reactivation of the HIV LTR”. In addition, the “Relative number of Gag-expressing live GFP+ cells” value in the assay on HIV (NL43, SG3) (CEMss LTR-GFP cells infected with SG3, day 5 post-infection, flow cytometry) is on record as “significantly decreased”. Also, in the assay with HIV (NL43, SG3) (CEMss LTR-GFP cells, HIV NL4-3, 0.25 μM, day 6 after infection, ELISA), the “Production of p24 in supernatants” value is recorded as “decreased below control values”. Moreover, the “Expression of p24Gag in the infected cells (ratio of p24+ in GFP+ population)” value in the assay with HIV (NL43, SG3) (CEMss LTR-GFP cells, NL43, 1 μM, day 3 after infection) is recorded as “decreased”. Also, the “Viral production (p24Gag in supernatants, ELISA)” value with HIV (NL43, SG3) (CEMss LTR-GFP cells, NL43, 1 μM, day 6 after infection) is listed as “decreased”. Besides, the “Binding of Cdk9 to the HIV LTR” value in assay [2] is on record as “significantly increased”.
